# Laboratory results: article PMC9688307 (2022)
# Assays:
# [1] = tested on: BP33-22TA (DNA, aptamer) CCGCCGTTGGTGTGGTGGGCCAAGGGCCGGCGG; test: ITC; details: 100 mM NaCl, 25 mM KCl, 10 mM MgCl2; 25 mM Tris-HCl pH 8.0, 2% DMSO; 500 μM BPA into 30 μM aptamer
# [2] = tested on: BP50 (DNA, aptamer) CCGCCGTTGGTGTGGTGGGCCTAGGGCCGGCGGCGCACAGCTGTTATAGA; test: ITC; details: 100 mM NaCl, 25 mM KCl, 10 mM MgCl2; 25 mM Tris-HCl pH 8.0, 2% DMSO; 500 μM BPA into 30 μM aptamer
# [3] = tested on: BP33-stem-30GT (DNA, aptamer) CCGCCGTTGGTGTGGTGGGCCTAGGGCCGTCGG; test: ITC; details: 100 mM NaCl, 25 mM KCl, 10 mM MgCl2; 25 mM Tris-HCl pH 8.0, 2% DMSO; 500 μM BPA into 30 μM aptamer
# [4] = tested on: BP33-15GT (DNA, aptamer) CCGCCGTTGGTGTGTTGGGCCTAGGGCCGGCGG; test: ITC; details: 100 mM NaCl, 25 mM KCl, 10 mM MgCl2; 25 mM Tris-HCl pH 8.0, 2% DMSO; 500 μM BPA into 30 μM aptamer
# [5] = tested on: BP45 (DNA, aptamer) CCGCCGTTGGTGTGGTGGGCCTAGGGCCGGCGGCGCACAGCTGTT; test: ITC; details: 100 mM NaCl, 25 mM KCl, 10 mM MgCl2; 25 mM Tris-HCl pH 8.0, 2% DMSO; 500 μM BPA into 30 μM aptamer
# [6] = tested on: BP33-20CA (DNA, aptamer) CCGCCGTTGGTGTGGTGGGACTAGGGCCGGCGG; test: ITC; details: 100 mM NaCl, 25 mM KCl, 10 mM MgCl2; 25 mM Tris-HCl pH 8.0, 2% DMSO; 500 μM BPA into 30 μM aptamer
# [7] = tested on: BP33-10GT (DNA, aptamer) CCGCCGTTGTTGTGGTGGGCCTAGGGCCGGCGG; test: ITC; details: 100 mM NaCl, 25 mM KCl, 10 mM MgCl2; 25 mM Tris-HCl pH 8.0, 2% DMSO; 500 μM BPA into 30 μM aptamer
# [8] = tested on: BP33-21CA (DNA, aptamer) CCGCCGTTGGTGTGGTGGGCATAGGGCCGGCGG; test: ITC; details: 100 mM NaCl, 25 mM KCl, 10 mM MgCl2; 25 mM Tris-HCl pH 8.0, 2% DMSO; 500 μM BPA into 30 μM aptamer
# [9] = tested on: BP55 (DNA, aptamer) CCGCCGTTGGTGTGGTGGGCCTAGGGCCGGCGGCGCACAGCTGTTATAGACGTCT; test: ITC; details: 100 mM NaCl, 25 mM KCl, 10 mM MgCl2; 25 mM Tris-HCl pH 8.0, 2% DMSO; 500 μM BPA into 30 μM aptamer
# [10] = tested on: BP33 (DNA, aptamer) CCGCCGTTGGTGTGGTGGGCCTAGGGCCGGCGG; test: ITC; details: 100 mM NaCl, 25 mM KCl, 10 mM MgCl2; 25 mM Tris-HCl pH 8.0, 2% DMSO; 500 μM BPA into 30 μM aptamer
# [11] = tested on: BP34 (DNA, aptamer) CGCCGTTGGTGTGGTGGGCCTAGGGCCGGCGGCG; test: ITC; details: 100 mM NaCl, 25 mM KCl, 10 mM MgCl2; 25 mM Tris-HCl pH 8.0, 2% DMSO; 500 μM BPA into 30 μM aptamer
# [12] = tested on: BP33-14GT (DNA, aptamer) CCGCCGTTGGTGTTGTGGGCCTAGGGCCGGCGG; test: ITC; details: 100 mM NaCl, 25 mM KCl, 10 mM MgCl2; 25 mM Tris-HCl pH 8.0, 2% DMSO; 500 μM BPA into 30 μM aptamer
# [13] = tested on: BP29-3'-MB (DNA, aptamer) GCCGTTGGTGTGGTGGGCCTAGGGCCGGC; test: square wave voltammetry, aptamer-modified gold electrode; details: 100 mM NaCl, 25 mM KCl, 10 mM MgCl2, 25 mM Tris-HCl pH 8.0
# [14] = tested on: BP25 (DNA, aptamer) CGTTGGTGTGGTGGGCCTAGGGCCG; test: ITC; details: 100 mM NaCl, 25 mM KCl, 10 mM MgCl2; 25 mM Tris-HCl pH 8.0, 2% DMSO; 500 μM BPA into 30 μM aptamer
# [15] = tested on: BP33-25GT (DNA, aptamer) CCGCCGTTGGTGTGGTGGGCCTAGTGCCGGCGG; test: ITC; details: 100 mM NaCl, 25 mM KCl, 10 mM MgCl2; 25 mM Tris-HCl pH 8.0, 2% DMSO; 500 μM BPA into 30 μM aptamer
# [16] = tested on: BP27 (DNA, aptamer) CCGTTGGTGTGGTGGGCCTAGGGCCGG; test: ITC; details: 100 mM NaCl, 25 mM KCl, 10 mM MgCl2; 25 mM Tris-HCl pH 8.0, 2% DMSO; 500 μM BPA into 30 μM aptamer
# [17] = tested on: BP33-11TA (DNA, aptamer) CCGCCGTTGGAGTGGTGGGCCTAGGGCCGGCGG; test: ITC; details: 100 mM NaCl, 25 mM KCl, 10 mM MgCl2; 25 mM Tris-HCl pH 8.0, 2% DMSO; 500 μM BPA into 30 μM aptamer
# [18] = tested on: BP31 (DNA, aptamer) CGCCGTTGGTGTGGTGGGCCTAGGGCCGGCG; test: ITC; details: 100 mM NaCl, 25 mM KCl, 10 mM MgCl2; 25 mM Tris-HCl pH 8.0, 2% DMSO; 500 μM BPA into 30 μM aptamer
# [19] = tested on: BP33-26GT (DNA, aptamer) CCGCCGTTGGTGTGGTGGGCCTAGGTCCGGCGG; test: ITC; details: 100 mM NaCl, 25 mM KCl, 10 mM MgCl2; 25 mM Tris-HCl pH 8.0, 2% DMSO; 500 μM BPA into 30 μM aptamer
# [20] = tested on: BP33-9GT (DNA, aptamer) CCGCCGTTTGTGTGGTGGGCCTAGGGCCGGCGG; test: ITC; details: 100 mM NaCl, 25 mM KCl, 10 mM MgCl2; 25 mM Tris-HCl pH 8.0, 2% DMSO; 500 μM BPA into 30 μM aptamer
# [21] = tested on: BP35 (DNA, aptamer) CCGCCGTTGGTGTGGTGGGCCTAGGGCCGGCGGCG; test: ITC; details: 100 mM NaCl, 25 mM KCl, 10 mM MgCl2; 25 mM Tris-HCl pH 8.0, 2% DMSO; 500 μM BPA into 30 μM aptamer
# [22] = tested on: BP33-27CA (DNA, aptamer) CCGCCGTTGGTGTGGTGGGCCTAGGGACGGCGG; test: ITC; details: 100 mM NaCl, 25 mM KCl, 10 mM MgCl2; 25 mM Tris-HCl pH 8.0, 2% DMSO; 500 μM BPA into 30 μM aptamer
# [23] = tested on: BP33-12GT (DNA, aptamer) CCGCCGTTGGTTTGGTGGGCCTAGGGCCGGCGG; test: ITC; details: 100 mM NaCl, 25 mM KCl, 10 mM MgCl2; 25 mM Tris-HCl pH 8.0, 2% DMSO; 500 μM BPA into 30 μM aptamer
# [24] = tested on: BP63 (DNA, aptamer) CCGGTGGGTGGTCAGGTGGGATAGCGTTCCGCGTATGGCCCAGCGCATCACGGGTTCGCACCA; test: ITC; details: 100 mM NaCl, 25 mM KCl, 10 mM MgCl2; 25 mM Tris-HCl pH 8.0, 2% DMSO; 200 μM BPA into 20 μM aptamer
# [25] = tested on: BP33-7TA (DNA, aptamer) CCGCCGATGGTGTGGTGGGCCTAGGGCCGGCGG; test: ITC; details: 100 mM NaCl, 25 mM KCl, 10 mM MgCl2; 25 mM Tris-HCl pH 8.0, 2% DMSO; 500 μM BPA into 30 μM aptamer
# [26] = tested on: BP40 (DNA, aptamer) CCGCCGTTGGTGTGGTGGGCCTAGGGCCGGCGGCGCACAG; test: ITC; details: 100 mM NaCl, 25 mM KCl, 10 mM MgCl2; 25 mM Tris-HCl pH 8.0, 2% DMSO; 500 μM BPA into 30 μM aptamer
# [27] = tested on: BP33-17GT (DNA, aptamer) CCGCCGTTGGTGTGGTTGGCCTAGGGCCGGCGG; test: ITC; details: 100 mM NaCl, 25 mM KCl, 10 mM MgCl2; 25 mM Tris-HCl pH 8.0, 2% DMSO; 500 μM BPA into 30 μM aptamer
# [28] = tested on: BP33-13TA (DNA, aptamer) CCGCCGTTGGTGAGGTGGGCCTAGGGCCGGCGG; test: ITC; details: 100 mM NaCl, 25 mM KCl, 10 mM MgCl2; 25 mM Tris-HCl pH 8.0, 2% DMSO; 500 μM BPA into 30 μM aptamer
# [29] = tested on: BP33-8TA (DNA, aptamer) CCGCCGTAGGTGTGGTGGGCCTAGGGCCGGCGG; test: ITC; details: 100 mM NaCl, 25 mM KCl, 10 mM MgCl2; 25 mM Tris-HCl pH 8.0, 2% DMSO; 500 μM BPA into 30 μM aptamer
# [30] = tested on: BP33-stem-6GT (DNA, aptamer) CCGCCTTTGGTGTGGTGGGCCTAGGGCCGGCGG; test: ITC; details: 100 mM NaCl, 25 mM KCl, 10 mM MgCl2; 25 mM Tris-HCl pH 8.0, 2% DMSO; 500 μM BPA into 30 μM aptamer
# [31] = tested on: BP33-16TA (DNA, aptamer) CCGCCGTTGGTGTGGAGGGCCTAGGGCCGGCGG; test: ITC; details: 100 mM NaCl, 25 mM KCl, 10 mM MgCl2; 25 mM Tris-HCl pH 8.0, 2% DMSO; 500 μM BPA into 30 μM aptamer
# [32] = tested on: BP29 (DNA, aptamer) GCCGTTGGTGTGGTGGGCCTAGGGCCGGC; test: ITC; details: 100 mM NaCl, 25 mM KCl, 10 mM MgCl2; 25 mM Tris-HCl pH 8.0, 2% DMSO; 500 μM BPA into 30 μM aptamer
# [33] = tested on: BP33-23AT (DNA, aptamer) CCGCCGTTGGTGTGGTGGGCCTTGGGCCGGCGG; test: ITC; details: 100 mM NaCl, 25 mM KCl, 10 mM MgCl2; 25 mM Tris-HCl pH 8.0, 2% DMSO; 500 μM BPA into 30 μM aptamer
# [34] = tested on: BP33-18GT (DNA, aptamer) CCGCCGTTGGTGTGGTGTGCCTAGGGCCGGCGG; test: ITC; details: 100 mM NaCl, 25 mM KCl, 10 mM MgCl2; 25 mM Tris-HCl pH 8.0, 2% DMSO; 500 μM BPA into 30 μM aptamer
# [35] = tested on: BP33-stem-29GT (DNA, aptamer) CCGCCGTTGGTGTGGTGGGCCTAGGGCCTGCGG; test: ITC; details: 100 mM NaCl, 25 mM KCl, 10 mM MgCl2; 25 mM Tris-HCl pH 8.0, 2% DMSO; 500 μM BPA into 30 μM aptamer
# [36] = 100 μM tested, no remarkable current change
structure (smiles),measurement,setting,value
CC(C)(c1ccc(O)cc1)c1ccc(O)cc1,Kd,[1],15.2 ± 0.9 µM
same,Kd,[2],9.5 ± 0.5 µM
same,Kd,[3],51.2 ± 10.4 µM
same,binding,[4],no
same,Kd,[5],12.5 ± 0.8 µM
same,Kd,[6],14.6 ± 0.9 µM
same,binding,[7],no
same,Kd,[8],10.5 ± 0.7 µM
same,Kd,[9],11.6 ± 1.0 µM
same,Kd,[10],10.5 ± 1.5 µM
same,Kd,[11],307 ± 249 µM
same,binding,[12],no
same,binding,[13]; current increased 88% at 500 μM BPA,yes
same,binding,[14],no
same,binding,[15],no
same,Kd,[16],56 ± 9.0 µM
same,Kd,[17],24.4 ± 1.8 µM
same,Kd,[18],13.4 ± 1.5 µM
same,binding,[19],no
same,binding,[20],no
same,Kd,[21],20.2 ± 1.0 µM
same,Kd,[22],16.0 ± 2.2 µM
same,binding,[23],no
same,binding,[24],no
same,Kd,[25],68.4 ± 4.9 µM
same,Kd,[26],15.4 ± 0.9 µM
same,binding,[27],no
same,Kd,[28],22.6 ± 6.9 µM
same,binding,[29],no
same,binding,[30],no
same,Kd,[31],24.4 ± 1.6 µM
same,Kd,[32],12.4 ± 3.4 µM
same,binding,[33],no
same,binding,[34],no
same,binding,[35],no
CN(C)[C@@H]1C(=O)C(C(N)=O)=C(O)[C@@]2(O)C(=O)C3=C(O)c4c(O)cccc4[C@@](C)(O)[C@H]3C[C@@H]12,binding,[13]; [36],no
CN(C)[C@@H]1C(=O)C(C(N)=O)=C(O)[C@@]2(O)C(=O)C3=C(O)c4c(O)cccc4[C@@](C)(O)[C@H]3[C@H](O)[C@@H]12,binding,[13]; [36],no
O=S(=O)(c1ccc(O)cc1)c1ccc(O)cc1,binding,[13]; [36],no
Oc1ccc(-c2ccc(O)cc2)cc1,binding,[13]; [36],no
